Laboratory results from PubChem BioAssay (NCI).
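A five-concentration, 48-hour dose response in 96-well plates underlies each endpoint, interpolated linearly between surrounding concentrations. Abbreviation: GI50, concentration required for 50% inhibition of growth. The concentration for full growth arrest is given as TGI.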

Tests used:
Experiment in all cases: NCI tumour cell line growth inhibition, 48 h
[1] = tested on: PC-3 prostate
[2] = tested on: LOX IMVI melanoma
[3] = tested on: OVCAR-5 ovarian
[4] = tested on: HL-60(TB) leukemia
[5] = tested on: SW-620 colon
[6] = tested on: OVCAR-8 ovarian
[7] = tested on: U251 CNS
[8] = tested on: MDA-MB-231 breast
[9] = tested on: A549 NSCLC
[10] = tested on: UO-31 renal
[11] = tested on: OVCAR-4 ovarian
[12] = tested on: NCI-H23 lung
[13] = tested on: SK-OV-3 ovarian
[14] = tested on: RPMI-8226 leukemia
[15] = tested on: SF-268 CNS
[16] = tested on: MDA-MB-435
[17] = tested on: HT29 colon
[18] = tested on: IGROV1 ovarian
[19] = tested on: SF-295 CNS
[20] = tested on: RXF 393 renal
[21] = tested on: KM12 colon
[22] = tested on: NCI-H226 lung
[23] = tested on: NCI/ADR-RES ovarian
[24] = tested on: MALME-3M melanoma
[25] = tested on: HCT-15 colon
[26] = tested on: COLO 205 colon
[27] = tested on: T-47D breast
[28] = tested on: A498 renal
[29] = tested on: UACC-62 melanoma
[30] = tested on: DU-145 prostate
[31] = tested on: SNB-19 CNS
[32] = tested on: CCRF-CEM leukemia
[33] = tested on: HOP-92 NSCLC
[34] = tested on: SK-MEL-5 melanoma
[35] = tested on: SK-MEL-28 melanoma
[36] = tested on: TK-10 renal
[37] = tested on: 786-0 renal
[38] = tested on: SF-539 CNS
[39] = tested on: HS 578T breast
[40] = tested on: SN12C renal
[41] = tested on: MCF7 breast
[42] = tested on: NCI-H522 lung
[43] = tested on: CAKI-1 renal
[44] = tested on: SR leukemia
[45] = tested on: EKVX NSCLC
[46] = tested on: K-562 leukemia
[47] = tested on: HCC-2998 colon
[48] = tested on: SK-MEL-2 melanoma
[49] = tested on: UACC-257 melanoma
[50] = tested on: HCT-116 colon
[51] = tested on: MOLT-4 leukemia
[52] = tested on: HOP-62 NSCLC
[53] = tested on: OVCAR-3 ovarian
[54] = tested on: NCI-H460 lung
[55] = tested on: SNB-75 CNS
[56] = tested on: ACHN renal
[57] = tested on: BT-549 breast

Work on `BrCc1cccc(C[P+](c2ccccc2)(c2ccccc2)c2ccccc2)c1` yielded a GI50 [1] of 6.26 µM, a TGI [1] greater than 100 µM and a GI50 [2] of 14 µM. For the same molecule, the TGI [2] was greater than 100 µM, the GI50 [3] was 30.2 µM and the TGI [3] was greater than 100 µM. The GI50 [4] was 13.9 µM, the TGI [4] was 49.9 µM and the GI50 [5] was 22.3 µM. For the same molecule, the TGI [5] was greater than 100 µM, the GI50 [6] was 6.65 µM and the TGI [6] was greater than 100 µM. The GI50 [7] was 6.86 µM, the TGI [7] was greater than 100 µM and the GI50 [8] was 33 µM. The TGI [8] was greater than 100 µM, the GI50 [9] was 42.3 µM and the TGI [9] was greater than 100 µM. It also gave a GI50 [10] greater than 100 µM, a TGI [10] greater than 100 µM and a GI50 [11] of 9.02 µM. For the same molecule, the TGI [11] was greater than 100 µM, the GI50 [12] was 36.2 µM and the TGI [12] was greater than 100 µM. It also gave a GI50 [13] of 70.1 µM, a TGI [13] greater than 100 µM and a GI50 [14] of 2.18 µM. The TGI [14] was 22.7 µM, the GI50 [15] was 40.4 µM and the TGI [15] was greater than 100 µM. For the same molecule, the GI50 [16] was 8.38 µM, the TGI [16] was greater than 100 µM and the GI50 [17] was 14.9 µM. The TGI [17] was greater than 100 µM, the GI50 [18] was 21.6 µM and the TGI [18] was greater than 100 µM. For the same molecule, the GI50 [19] was 35.5 µM, the TGI [19] was greater than 100 µM and the GI50 [20] was 54.7 µM. The TGI [20] was greater than 100 µM, the GI50 [21] was 16 µM and the TGI [21] was greater than 100 µM. It also gave a GI50 [22] of 45 µM, a TGI [22] greater than 100 µM and a GI50 [23] greater than 100 µM. It also gave a TGI [23] greater than 100 µM, a GI50 [24] of 82.8 µM and a TGI [24] greater than 100 µM. The GI50 [25] was greater than 100 µM, the TGI [25] was greater than 100 µM and the GI50 [26] was 4.57 µM. For the same molecule, the TGI [26] was 18.9 µM, the GI50 [27] was 3.99 µM and the TGI [27] was greater than 100 µM. The GI50 [28] was 59.5 µM, the TGI [28] was greater than 100 µM and the GI50 [29] was 7.97 µM. The TGI [29] was greater than 100 µM, the GI50 [30] was 52.9 µM and the TGI [30] was greater than 100 µM. For the same molecule, the GI50 [31] was 12.1 µM, the TGI [31] was greater than 100 µM and the GI50 [32] was 13.3 µM. For the same molecule, the TGI [32] was greater than 100 µM, the GI50 [33] was 2.84 µM and the TGI [33] was 52.4 µM. The GI50 [34] was 5.14 µM, the TGI [34] was 24 µM and the GI50 [35] was 21.7 µM. It also gave a TGI [35] greater than 100 µM, a GI50 [36] of 12.5 µM and a TGI [36] greater than 100 µM. For the same molecule, the GI50 [37] was 46.2 µM, the TGI [37] was greater than 100 µM and the GI50 [38] was 6.05 µM. For the same molecule, the TGI [38] was greater than 100 µM, the GI50 [39] was 18.4 µM and the TGI [39] was greater than 100 µM. It also gave a GI50 [40] of 18.4 µM, a TGI [40] greater than 100 µM and a GI50 [41] of 13.4 µM. It also gave a TGI [41] greater than 100 µM, a GI50 [42] of 6.88 µM and a TGI [42] greater than 100 µM. For the same molecule, the GI50 [43] was greater than 100 µM, the TGI [43] was greater than 100 µM and the GI50 [44] was 25.8 µM. The TGI [44] was greater than 100 µM, the GI50 [45] was 18.1 µM and the TGI [45] was greater than 100 µM. The GI50 [46] was 4.26 µM, the TGI [46] was greater than 100 µM and the GI50 [47] was 21.8 µM. For the same molecule, the TGI [47] was greater than 100 µM, the GI50 [48] was 27.9 µM and the TGI [48] was greater than 100 µM. It also gave a GI50 [49] of 5.49 µM, a TGI [49] greater than 100 µM and a GI50 [50] of 6.02 µM. It also gave a TGI [50] greater than 100 µM, a GI50 [51] of 65 µM and a TGI [51] greater than 100 µM. For the same molecule, the GI50 [52] was 4.86 µM, the TGI [52] was greater than 100 µM and the GI50 [53] was 10.8 µM. It also gave a TGI [53] greater than 100 µM, a GI50 [54] of 25 µM and a TGI [54] greater than 100 µM. The GI50 [55] was 6.78 µM, the TGI [55] was greater than 100 µM and the GI50 [56] was greater than 100 µM. The TGI [56] was greater than 100 µM, the GI50 [57] was 34.5 µM and the TGI [57] was greater than 100 µM.
